# US9868935B2, “Composition and method of stem cells for preservation of cardiac tissue” (CRIOESTAMINAL, SAÚDE E TECNOLOGIA, SA., priority 2012, dated 2018)
# Assays:
# CD34+ cells [1] = experiment: Antagonist pretreatment and LPA-induced CD34+ cell survival in hypoxia (Annexin V/PI FACS); type: cell-based, human; details: LPA 100 μM alone (+LPA, no antagonist); hypoxia 24 h
# Experimental: FIG. 5—LPA induces CD34+ cell survival mainly through peroxisome proliferator-activator receptor (PPAR). Cells were cultured in serum free medium with LPA. Cells were pretreated with Rho kinase inhibitor (Y-2762, 50 μM), mitogen-activated protein kinase (MAPK) inhibitor (PD98059, 60 μM), LPA1- and LPA3-specific inhibitor (Ki16425, 10 μM), or peroxisome proliferator-activator receptor g (PPARg) inhibitor (GW9662, 50 μM) for 1 hour before hypoxia and cell medium containing LPA (100 μM) for 24 h. Cells without any pretreatment and cultured in serum free medium with or without LPA, in hypoxia for 24 h, were used as positive and negative controls, respectively. Results are average±SEM (n=3-6). * Denote statistical significance: *P<0.05, **P<0.01, […].
# The biological roles of LPA are diverse and include developmental, physiological, and pathophysiological effects (Lin, M. E., D. R. Herr, and J. Chun, Lysophosphatidic acid (LPA) receptors: signaling properties and disease relevance. Prostaglandins Other Lipid Mediat, 2010. 91(3-4): p. 130-8). To date up to five LPA receptors (LPARs) have been identified: LPA1-LPA5 (Choi, J. W., et al., LPA receptors: subtypes and biological actions. Annu Rev Pharmacol Toxicol, 2010. 50: p. 157-86). The receptors are G protein-coupled receptors (GPCRs) and their presence can be found in multiple tissues. LPA1, LPA2 and LPA3 are widely expressed in most tissues (Ishii, I., et al., Functional comparisons of the lysophosphatidic acid receptors, LP(A1)/VZG-1/EDG-2, LP(A2)/EDG-4, and LP(A3)/EDG-7 in neuronal cell lines using a retrovirus expression system. Mol Pharmacol, 2000. 58(5): p. 895-902). LP4 is expressed in specific organs, such as the pancreas, ovaries and thymus (Lee, C. W., et al., LPA(4)/GPR23 is a lysophosphatidic acid (LPA) receptor utilizing G(s)-, G(q)/G(i)-mediated calcium signaling and G(12/13)-mediated Rho activation. J Biol Chem, 2007. 282(7): p. 4310-7). LPA5 is expressed at low levels in multiple tissues (Lee, C. W., et al., GPR92 as a new G12/13- and Gq-coupled lysophosphatidic acid receptor that increases cAMP, LPA5. J Biol Chem, 2006. 281(33): p. 23589-97). To identify the receptor that is mediating the pro-survival effect of LPA (100 μM), was used Ki16425 (10 μM), an LPA1- and LPA3-specific antagonist, and GW9662 (50 μM), an antagonist of peroxisome proliferator-activator receptor γ (PPAR γ). Studies indicate that LPA has a high affinity by this last receptor (McIntyre, T. M., et al., Identification of an intracellular receptor for lysophosphatidic acid (LPA): LPA is a transcellular PPARgamma agonist. Proc Natl Acad Sci USA, 2003. 100(1): p. 131-6; Gustin, C., M. Van Steenbrugge, and M. Raes, LPA modulates monocyte migration directly and via LPA-stimulated endothelial cells. Am J Physiol Cell Physiol, 2008. 295(4): p. C905-14). This approach was complemented, by inhibiting downstream targets of the receptors including Rho kinase and mitogen-activated protein kinase (MAPK) using Y-2762 (50 μM) and PD98059 (60 μM) antagonists, respectively. It is known that all LPARs couple with and activate G proteins, which in turn activate MAPK (LPA1, LPA2, LPA3 and LPA4) and Rho kinase (LPA1, LPA2, LPA4 and LPA5) (Choi, J. W., et al., LPA receptors: subtypes and biological actions. Annu Rev Pharmacol Toxicol, 2010. 50: p. 157-86). Cells were treated for 1 h in X-Vivo medium containing a specific antagonist followed by culture under hypoxia conditions for 24 h. Cell survival was assessed by FACS analysis after Annexin V/PI staining. […] The number of viable cells decreased from 77% (+LPA) to 67% (P<0.01, n=19). […] Because the two signaling pathways are downstream targets of different LPARs (see above), this might indicate different contributions of LPARs in the survival of CD34+ cells.
# CD34+ cells [2] = experiment: CD34+ cell self-renewal/differentiation by FACS; type: cell-based, human; details: LPA-treated; after 1 day of hypoxia
# Experimental: In an embodiment, multicolor analysis for progenitor and stem cell phenotyping was performed on a FACS Calibur cytometer (preferably, Becton Dickinson). Cells were stained for 1 h with APC or pacific blue antihuman CD45 (preferably, e-Bioscience), FITC anti-mouse CD45 (preferably, -Bioscience), PeCy7 anti-human CD33 (preferably, BD Bioscience), PE anti-human CD11b (preferably, BD Bioscience), FITC anti-human CD19 (preferably, BD Bioscience), PeCy7 anti-human CD3 (preferably, BD Bioscience), PE anti-human Glycophorin A (preferably, BD Bioscience), FITC anti-human CD41 (preferably, e-bioscience), and PeCy7 anti-human CD56 (preferably, BD Bioscience), washed with staining media and analyzed.
# To examine the effect of LPA in CD34+ cell self-renewal/differentiation, untreated and LPA-treated CD34+ cells were cultured in X-vivo medium in hypoxia conditions for 1 day followed or not by 6 days in normoxia and finally characterized by FACS. After 1 day of hypoxia, both untreated or LPA-treated CD34+ cells started to differentiate into mast cells (between 14 and 17%) and neutrophils (between 5 and 8%) (FIG. 3B). Only 78% and 72% of the untreated or LPA-treated CD34+ cells express CD34 marker. CD34 expression is higher in cells that have been exposed to hypoxia than in normoxia conditions since only 6% of the cells cultured in normoxia conditions for 24 h express CD34 marker. […]
substance,measurement,setting,value
lysophosphatidic acid [LPA],number of viable cells,CD34+ cells [1],~77%
same,cells expressing CD34 marker,CD34+ cells [2],72%
